Reference: patent publication US8097728B2, “Iminosugar compounds with antiflavirus activity” (Philadelphia Health & Education Corporation, priority 2007, dated 2012)
Entries after “also recorded” stand apart in the source; their conditions may differ. Read-outs that look alike come from different tables or passages of the source.

How the values were obtained:
[1] = MTT compound toxicity assay on BHK cells; type: cell-based; conditions: hamster; WNV (BHK); MTT, 50% reduction relative to DMSO
Protocol: (§1) Compound toxicity assay. Compound cytotoxicity was assessed by using an MTT based toxicity assay kit (Sigma, St. Louis, Mo.) as described elsewhere (Gu et al., 2006). Briefly, cells cultured under conditions identical to those used in the viral assay were incubated with various concentrations of the compound for 72 hours. MTT was added to the media to a final concentration of 0.5 mg/ml and was incubated for 3 hours at 37 C. After the culture media was removed, formazan crystals was dissolved by adding 150 ul of solubilization solution (10% Triton X-100, 0.1 N HCl in anhydrous isopropanol) for 15-30 minutes. The absorbance of the dissolved formazan was measured spectrophotometrically at 570 nm with absorbance at 690 nm as background.

WNV = WNV yield reduction assay in BHK cells; conditions: for selectivity ratio at 48 h: hamster
Protocol: Cells and viruses. BVDV-free MDBK cells (CCL 22) were obtained from the American Type Culture Collection and propagated in DMEM/F12 essential medium supplemented with penicillin (500 U/ml), streptomycin (500 U/ml), and 10% heat inactivated horse serum (Invitrogen). Cells were maintained in a humidified incubator at 37° C. with 5% CO2. BVDV (NADL strain) was obtained from Dr. Rubin Donis (Univ. of Nebraska-Lincoln). For infections, virus inoculum was added in complete medium and adsorbed for 1 h at 37° C., the inoculum was then removed, the cells washed once with medium and fresh medium containing compounds added. Virus stocks were prepared by freeze-thawing the infected cells and culture supernatant three times followed by centrifugation at 1,000 g for 5 min. Stock titers were determined, and stocks were aliquoted and stored at −80° C. WNV was obtained from a cDNA clone of a human 2002 isolate from Texas (Rossi et al., 2005); virus obtained from BHK cells electroporated with the in vitro synthesized RNA from this cDNA clone was passaged in Vero cells before use in antiviral assays. Dengue virus (DV) serotype 2 was a New Guinea C virus that had been passaged 28 times in suckling mouse brain, twice in Vero cells, and once in C6/36 mosquito cells.
WNV and DV Yield Reduction assay: Antiviral activity against WNV was evaluated in a yield reduction assay. Briefly, BHK cells were plated in 96-well plates at a concentration of 2.5×10^4 cells/well. 24 hours after plating, the cells were infected with WNV at an MOI of 0.05. After 1 hour the inoculum was aspirated and the cells re-fed with fresh DMEM containing dilutions of the test compounds. Plates were then incubated at 37° C. for 48 hours, the supernatant collected and the WNV produced titered. For virus titration, Vero cells were plated in 96-well plates at 8.0×10^3 cells/well and incubated overnight. The Vero cell monolayers were then infected for 1 hour with various dilutions of the WNV supernatant, overlaid with media containing 0.6% tragacanth (ICN, CA) and incubated at 37° C. for 24-30 hours. The culture media was then aspirated; the plate was rinsed, air-dried, and fixed with 50 ul/well acetone/methanol (50:50). Viral foci were detected for enumeration by immunostaining as described previously (Rossi et al., 2005). For antiviral testing against DV, DV serotype 2, drug incubations and titrations were performed essentially as described for WNV, except that the virus was harvested from drug-treated cultures 72 hrs after infection, and foci were stained using hybridoma culture fluid harvested from monoclonal antibody-producing hybridoma clone D1-4G2 (Gentry et al., 1982) following 3 days of incubation on Vero cells under the tragacanth overlay.
For this purpose, BHK cells were infected with WNV at an moi of 0.05, and incubated in either the absence or presence of various concentrations of N-butylcyclohexyl-DNJ (SP169) and N-propylcyclohexyl-DNJ (SP173). After three days, the amount of progeny virus produced was determined by plaque assays on indicator Vero cells.

DV serotype 2 = assay: DV yield reduction assay in BHK cells; type: cell-based, Dengue virus (DV) serotype 2; conditions: for selectivity ratio at 72 h: hamster, read-out: SI (Selective Index, CC50/IC50)
Protocol: In the DV infection assay, a serotype 2 DV was used to infect BHK cells in the presence or absence of testing compounds and viruses produced after 72 hours were titered in a manner similar to the WNV assay. In this experiment, N-butylcyclohexyl-DNJ (SP169), N-pentyl(1-hydroxylcyclohexyl)-DNJ (OSL-95II), […] and N-propylcyclohexyl-DNJ (SP173) were compared with NNDNJ (Wu et al., 2002) and castanospermine. […] All compounds had no toxicity at the highest concentrations used in this experiment (FIG. 5B, Table 1).

HBV = HBV antigen assay: LHBs and MHBs secreted by HepG2.2.15 cells, immunoblot; type: cell-based, Hepatitis B virus; conditions: 7 days
Protocol: MHBs and LHBs are HBV envelope proteins that are sensitive to glucosidase inhibition and inhibition of these important viral glycoproteins serves as a surrogate for HBV growth. […] To assess the activity of this compound in the context of viral replication, HepG2 2.2.15 cells were incubated with the indicated DNJ derived compound. HepG 2.2.15 cells secrete readily detectable amounts of MHBs and LHBs into the culture medium. After 7 days of incubation, the amount of HBV M and L in the culture medium was determined by western blot. […] The nature of the selective antiviral activity is not known, but may be due to cell specific activity since HBV is studied in human liver derived hepatoblastoma HepG2 cells and BVDV and WNV were studied in MDBK and BHK cells, respectively.
HBV antigen assay: Antiviral activity against HBV was determined using HepG2.2.15 cells, which contain a dimer of the HBV genome and express all viral gene products, including envelope glycoproteins (Sells, Chen, and Acs, 1987). Briefly, HepG2.2.15 cells were seeded in 24 well trays, and allowed to grow to confluence prior to addition of drug, as described previously (Simsek et al., 2005). After seven days of treatment, supernatants were harvested and assayed for the presence of the Large Hepatitis B (LHBs) and middle Hepatitis B (MHBs) glycoproteins by electrophoresis through 12% polyacrylamide gels and immunoblotting with a polyclonal antibody that recognizes the pre-S2 region of the LHBs and MHBs proteins (Research Diagnostics Inc., Flanders, N.J.) as described (Simsek et al., 2005). Quantitation was performed using AlphaEase software (Alphalnnotech).

BVDV = BVDV single cycle virus yield reduction assay in MDBK cells; type: cell-based, Bovine Viral Diarrhea virus (NADL strain); conditions: for antiviral activity against BVDV (in words): MDBK cells, virus yield reduction, FIG. 2C / 4C
Protocol: BVDV antiviral and plaque assays. To evaluate antiviral activity against BVDV, a single cycle virus yield reduction assay was performed in the presence of various concentrations of the test compounds. Specifically, 2×10^5 MDBK cells/well were plated in 24 well plates. Twenty-four hours later, the cells were infected with BVDV at a multiplicity of infection (moi) of 0.5 PFU/cell in 100 ul complete media. After adsorption for 1 h at 37° C., the inoculum was removed, and cells were washed with media before media containing vehicle or various concentrations of each compound was added. At 22 hour post infection, both cell and media were collected and freeze-thawed three times before the virus was titered. For BVDV virus titer determination, 10^−2, 10^−3, and 10^−4 dilutions of virus were inoculated onto MDBK cells as described previously (Gu et al., 2000; Jordan et al., 2002). After absorption and washing the cells were overlaid with medium containing methylcellulose or soft agar and incubated at 37° C. for 3 days or until plaques were visible. Plaques were counted directly under the microscope or after staining with crystal violet in 70% methanol for 15 min.
(§2) The anti-viral activity of this family of compounds against BVDV was then determined by a single cycle viral yield reduction assay in Madin Darby Bovine Kidney (MDBK) cells where the compounds are incubated with cells for 20 hours during the period of infection. Yields of virus were then determined by plaque assay on new MDBK cell monolayers. Compound toxicity was measured by MTT assay and the CC50 determined as the concentration of compound producing 50% reduction in absorption readings. […] This is consistent with previous findings in which oxygenation and methoxylation of side chains emanating from the ring nitrogen were less toxic in tissue culture and in animals than straight chain alkylated DNJs (Mehta et al., 2002b).

MDBK cells = assay: MTT compound toxicity assay on MDBK cells; type: cell-based, Bovine; conditions: 72 hours; for CC50: BVDV (MDBK), concentration reducing MTT values (570 nm) by 50% relative to DMSO; for toxicity in MDBK cells (in words): MTT, FIG. 4B
Protocol: as §1, §2

BHK cells = assay: MTT compound toxicity assay on BHK cells; type: cell-based; conditions: for CC50: WNV (BHK), MTT, 50% reduction relative to DMSO
Protocol: as §1

[2] = MTT compound toxicity assay on MDBK cells; type: cell-based, Bovine; conditions: bovine
Protocol: as §1, §2

[3] = Dengue virus, BHK, 72 h, read-out: IC50 against DV
[4] = BVDV (MDBK), concentration reducing plaque number by 50% relative to DMSO, read-out: IC50
[5] = WNV (BHK), plaque number reduced by 50% relative to DMSO, 48 hours
[6] = MDBK cells, MTT, text to FIG. 2B / 4B

O[C@H]1[C@H](O)[C@@H](O)CN2CC[C@H](O)[C@H]12 [CAST, Castanospermine, reference compound]
CC50 at 72 h [1]: > 100 µM
IC50 (WNV; West Nile virus, BHK, 48 h): > 20 µM
selectivity ratio at 48 h (WNV): 5
antiviral activity against WNV (in words) (WNV; highest concentration tested (20 uM)): no significant activity
IC50 (DV serotype 2; Dengue virus, BHK, 72 h): 6 µM
IC50 (DV serotype 2; [3]): 6 µM
selectivity ratio at 72 h (DV serotype 2; DV (BHK)): > 17

Nc1ccn([C@@H]2CS[C@H](CO)O2)c(=O)n1 [Compound 3TC, reference compound]
reduction of MHBs and LHBs in culture medium (in words) (HBV; 3TC 1 ug/ml, FIG. 6B): little effect

CCOCCCCCN1C[C@H](O)[C@@H](O)[C@H](O)[C@H]1CO [Compound 6-08, 6′-oxaoctyl-DNJ]
antiviral activity against BVDV (in words) (BVDV): retained the best antiviral activity of the series

CCCCCCCCCN1C[C@H](O)[C@@H](O)[C@H](O)[C@H]1CO [NNDNJ, N-nonyl-DNJ, reference compound]
SI (Selective Index, CC50/IC50) (BVDV; BVDV (MDBK)): >50
IC50 (BVDV; [4]): < 3 µM
CC50 (MDBK cells): 150 µM
CC50 (BHK cells): 20 to 100 µM
SI (Selective Index, CC50/IC50) (WNV; WNV (BHK)): 5-25
IC50 (WNV; [5]): 4 µM
SI (Selective Index, CC50/IC50) (DV serotype 2; DV (BHK)): 20-100
IC50 (DV serotype 2; text to FIG. 5A, BHK cells, DV serotype 2, 72 hours, read-out: IC50 against DV): 1 µM

OC[C@@H]1[C@@H](O)[C@H](O)[C@@H](O)CN1CCCCCC1CCCCC1 [OSL-1, N-pentylcyclohexyl-DNJ]
inhibition of secretion of viral glycoproteins MHBs and LHBs (in words) (HBV; 50 uM, FIG. 6A): lacked antiviral activity in this assay

OC[C@@H]1[C@@H](O)[C@H](O)[C@@H](O)CN1CCCCCCC1CCCCC1 [OSL-2, N-hexylcyclohexyl-DNJ]
antiviral activity against BVDV (in words) (BVDV): appeared to be inactive against BVDV

OC[C@@H]1[C@@H](O)[C@H](O)[C@@H](O)CN1CCCCCCC1(O)CCCCC1 [OSL-3, N-hexyl(1-hydroxycyclohexyl)-1,5-dideoxy-1,5-imino-D-glucitol]
CC50 at 72 h [2, 6]: > 300 µM

OC[C@@H]1[C@@H](O)[C@H](O)[C@@H](O)CN1CCCCC1(O)CCCCC1 [OSL-12-31, N-butyl(1-hydroxycyclohexyl)-1,5-dideoxy-1,5-imino-D-glucitol]
CC50 at 72 h [2, 6]: > 300 µM
toxicity in MDBK cells (in words) (MDBK cells): less toxic in MDBK cultures than SP169

OC[C@@H]1[C@@H](O)[C@H](O)[C@@H](O)CN1CCCCC1=CCCCC1 [OSL-12-51, N-butyl(1-cyclohexenyl)-DNJ]
antiviral activity against BVDV (in words) (BVDV): substantially less active against BVDV

OC[C@@H]1[C@@H](O)[C@H](O)[C@@H](O)CN1CCCCCC1(O)CCCCC1 [OSL-95II, N-pentyl(1-hydroxycyclohexyl)-1,5-dideoxy-1,5-imino-D-glucitol]
IC50 (BVDV; Bovine viral diarrhea virus isolates and strains, MDBK): 3 µM
selectivity ratio at 20 h (BVDV; bovine, BVDV (MDBK), read-out: SI (Selective Index, CC50/IC50)): > 166
CC50 at 72 h ([2]; BVDV (MDBK), concentration reducing MTT values (570 nm) by 50% relative to DMSO): > 500 µM
toxicity in MDBK cells (in words) (MDBK cells): much less toxic than N-pentylcyclohexyl-DNJ (OSL-1); also recorded: significantly less cytotoxic against MDBK cells
CC50 at 72 h [1]: > 100 µM
IC50 (WNV; West Nile virus, BHK, 48 h): 4.5 µM
selectivity ratio at 48 h (WNV): > 9
IC50 (DV serotype 2; Dengue virus, BHK, 72 h): 2 µM
IC50 (DV serotype 2; [3]): 1 to 2 µM
selectivity ratio at 72 h (DV serotype 2; DV (BHK)): > 50

OC[C@@H]1[C@@H](O)[C@H](O)[C@@H](O)CN1CCCC1CCCCC1 [SP173, N-propylcyclohexyl-DNJ]
SI (Selective Index, CC50/IC50) (BVDV; BVDV (MDBK)): >30
IC50 (BVDV; [4]): 5 µM
CC50 (MDBK cells): > 150 µM
concentration without any detectable cell toxicity (highest concentration tested) (BHK cells; BHK cells, measured in parallel to WNV assay, data not shown): 100 µM
CC50 (BHK cells): > 100 µM
antiviral activity against WNV (in words) (WNV; BHK cells, moi 0.05, FIG. 3B / 4D): comparable to NNDNJ in activity
SI (Selective Index, CC50/IC50) (WNV; WNV (BHK)): >100
IC50 (WNV; [5]): 1 µM
IC50 (WNV; read-out: concentration inhibiting 50% of the WNV progeny produced, text to FIG. 3B, BHK cells, moi 0.05): 5 µM
SI (Selective Index, CC50/IC50) (DV serotype 2; DV (BHK)): >33
IC50 (DV serotype 2; DV (BHK), serotype 2, 72 hrs, read-out: IC50): 3 µM
